Article PMC7955776 (Investigational new drugs, 2020)
Values joined by “and” are separate entries in the source; they are usually repeats but may differ in a detail not shown here. Equal entries are not always repeated. Marks after values point to notes of the source that are not given here.

Columns and labels:
[1] = Phase I 3 + 3 dose escalation: DLT and MTD; details: human, in vivo
[2] = Safety: adverse events graded by CTCAE v4.0; assay type: in vivo, human; details: with paclitaxel and carboplatin
[3] = RO4929097 plasma pharmacokinetics; assay type: in vivo, human; details: for AUC(0-inf) / Cmax / half-life / Vd/F: human, plasma, oral; for Vd/F: Vz/F
stage II-III TNBC = assay: Clinico-pathological response to neoadjuvant treatment; assay type: in vivo, human
[4] = ECG monitoring during cycle 1; assay type: in vivo, human; details: 10 patients, cycle 1, before and after dosing on days 1 and 17
[5] = 20 mg dose, Cycle 1 Day 15, N = 3, mean ± SD
[6] = 10 mg, 10 mg dose, Cycle 1 Day 1, N = 8, mean ± SD
[7] = 10 mg, 10 mg dose, Cycle 1 Day 15, N = 7, mean ± SD
[8] = 10 mg, 10 mg dose, Cycle 1 Day 17, N = 6, mean ± SD
[9] = 20 mg, 20 mg dose, Cycle 1 Day 1, N = 4, mean ± SD
[10] = 20 mg, 20 mg dose, Cycle 1 Day 15, N = 3, mean ± SD
[11] = 20 mg, 20 mg dose, Cycle 1 Day 17, N = 2, mean ± SD

CC(C)(C(=O)NCC(F)(F)C(F)(F)F)C(=O)N[C@@H]1C(=O)Nc2ccccc2-c2ccccc21 [RO4929097]
DLTs observed, all dose levels [1]: 2 | SAE: depression ([2]; N = 1): 7% | SAE: glucose intolerance ([2]; N = 1): 7% | SAE: hyperglycemia ([2]; N = 1): 7% | SAE: leukopenia ([2]; N = 1): 7% | SAE: neutropenia ([2]; N = 1): 7% | SAE: thrombocytopenia ([2]; N = 1): 7% | SAE: wound dehiscence ([2]; N = 1): 7% | SAE: wound infection ([2]; N = 1): 7% | SAE: hypertension ([2]; N = 3): 21% | Serious adverse events (SAEs) reported, number ([2]; duration of study): Eleven | Alopecia, All Grades ([2]; treatment-related AE, N = 14): 9 (64) N (%) | Alopecia, Grade 1 ([2]; treatment-related AE, N = 14): 3 (21) N (%) | Alopecia, Grade 2 ([2]; treatment-related AE, N = 14): 6 (43) N (%) | Alopecia, Grade 3 ([2]; treatment-related AE, N = 14): 0 (0) N (%) | Alopecia, Grade 4 ([2]; treatment-related AE, N = 14): 0 (0) N (%) | Anemia, All Grades ([2]; treatment-related AE, N = 14): 12 (86) N (%) | Anemia, Grade 1 ([2]; treatment-related AE, N = 14): 0 (0) N (%) | Anemia, Grade 2 ([2]; treatment-related AE, N = 14): 8 (57) N (%) | Anemia, Grade 3 ([2]; treatment-related AE, N = 14): 4 (29%) N (%) and 4 (29) N (%) | Anemia, Grade 4 ([2]; treatment-related AE, N = 14): 0 (0) N (%) | Anorexia, All Grades ([2]; treatment-related AE, N = 14): 9 (64) N (%) | Anorexia, Grade 1 ([2]; treatment-related AE, N = 14): 8 (57) N (%) | Anorexia, Grade 2 ([2]; treatment-related AE, N = 14): 1 (7) N (%) | Anorexia, Grade 3 ([2]; treatment-related AE, N = 14): 0 (0) N (%) | Anorexia, Grade 4 ([2]; treatment-related AE, N = 14): 0 (0) N (%) | Constipation, All Grades ([2]; treatment-related AE, N = 14): 10 (71) N (%) | Constipation, Grade 1 ([2]; treatment-related AE, N = 14): 10 (71) N (%) | Constipation, Grade 2 ([2]; treatment-related AE, N = 14): 0 (0) N (%) | Constipation, Grade 3 ([2]; treatment-related AE, N = 14): 0 (0) N (%) | Constipation, Grade 4 ([2]; treatment-related AE, N = 14): 0 (0) N (%) | Dyspnea, All Grades ([2]; treatment-related AE, N = 14): 10 (71) N (%) | Dyspnea, Grade 1 ([2]; treatment-related AE, N = 14): 7 (50) N (%) | Dyspnea, Grade 2 ([2]; treatment-related AE, N = 14): 3 (21) N (%) | Dyspnea, Grade 3 ([2]; treatment-related AE, N = 14): 0 (0) N (%) | Dyspnea, Grade 4 ([2]; treatment-related AE, N = 14): 0 (0) N (%) | Elevated aspartate aminotransferase, All Grades ([2]; treatment-related AE, N = 14): 6 (43) N (%) | Elevated aspartate aminotransferase, Grade 1 ([2]; treatment-related AE, N = 14): 6 (43) N (%) | Elevated aspartate aminotransferase, Grade 2 ([2]; treatment-related AE, N = 14): 0 (0) N (%) | Elevated aspartate aminotransferase, Grade 3 ([2]; treatment-related AE, N = 14): 0 (0) N (%) | Elevated aspartate aminotransferase, Grade 4 ([2]; treatment-related AE, N = 14): 0 (0) N (%) | Epistaxis, All Grades ([2]; treatment-related AE, N = 14): 8 (57) N (%) | Epistaxis, Grade 1 ([2]; treatment-related AE, N = 14): 7 (50) N (%) | Epistaxis, Grade 2 ([2]; treatment-related AE, N = 14): 1 (7) N (%) | Epistaxis, Grade 3 ([2]; treatment-related AE, N = 14): 0 (0) N (%) | Epistaxis, Grade 4 ([2]; treatment-related AE, N = 14): 0 (0) N (%) | Fatigue, All Grades ([2]; treatment-related AE, N = 14): 11 (79) N (%) | Fatigue, Grade 1 ([2]; treatment-related AE, N = 14): 5 (36) N (%) | Fatigue, Grade 2 ([2]; treatment-related AE, N = 14): 5 (36) N (%) | Fatigue, Grade 3 ([2]; treatment-related AE, N = 14): 1 (7%) N (%) and 1 (7) N (%) | Fatigue, Grade 4 ([2]; treatment-related AE, N = 14): 0 (0) N (%) | Headache, All Grades ([2]; treatment-related AE, N = 14): 9 (64) N (%) | Headache, Grade 1 ([2]; treatment-related AE, N = 14): 8 (57) N (%) | Headache, Grade 2 ([2]; treatment-related AE, N = 14): 1 (7) N (%) | Headache, Grade 3 ([2]; treatment-related AE, N = 14): 0 (0) N (%) | Headache, Grade 4 ([2]; treatment-related AE, N = 14): 0 (0) N (%) | Hyperglycemia, All Grades ([2]; treatment-related AE, N = 14): 7 (50) N (%) | Hyperglycemia, Grade 1 ([2]; treatment-related AE, N = 14): 7 (50) N (%) | Hyperglycemia, Grade 2 ([2]; treatment-related AE, N = 14): 0 (0) N (%) | Hyperglycemia, Grade 3 ([2]; treatment-related AE, N = 14): 0 (0) N (%) | Hyperglycemia, Grade 4 ([2]; treatment-related AE, N = 14): 0 (0) N (%) | Hypertension, All Grades ([2]; treatment-related AE, N = 14): 8 (57) N (%) | Hypertension, Grade 1 ([2]; treatment-related AE, N = 14): 4 (29) N (%) | Hypertension, Grade 2 ([2]; treatment-related AE, N = 14): 3 (21) N (%) | Hypertension, Grade 3 ([2]; treatment-related AE, N = 14): 1 (7%) N (%) and 1 (7) N (%) | Hypertension, Grade 4 ([2]; treatment-related AE, N = 14): 0 (0) N (%) | Leukopenia, All Grades ([2]; treatment-related AE, N = 14): 13 (93) N (%) | Leukopenia, Grade 1 ([2]; treatment-related AE, N = 14): 1 (7) N (%) | Leukopenia, Grade 2 ([2]; treatment-related AE, N = 14): 7 (50) N (%) | Leukopenia, Grade 3 ([2]; treatment-related AE, N = 14): 5 (36) N (%) | Leukopenia, Grade 4 ([2]; treatment-related AE, N = 14): 0 (0) N (%) | Lymphocytopenia, All Grades ([2]; treatment-related AE, N = 14): 12 (86) N (%) | Lymphocytopenia, Grade 1 ([2]; treatment-related AE, N = 14): 5 (36) N (%) | Lymphocytopenia, Grade 2 ([2]; treatment-related AE, N = 14): 5 (36) N (%) | Lymphocytopenia, Grade 3 ([2]; treatment-related AE, N = 14): 2 (14) N (%) | Lymphocytopenia, Grade 4 ([2]; treatment-related AE, N = 14): 0 (0) N (%) | Nausea, All Grades ([2]; treatment-related AE, N = 14): 12 (86) N (%) | Nausea, Grade 1 ([2]; treatment-related AE, N = 14): 9 (64) N (%) | Nausea, Grade 2 ([2]; treatment-related AE, N = 14): 3 (21) N (%) | Nausea, Grade 3 ([2]; treatment-related AE, N = 14): 0 (0) N (%) | Nausea, Grade 4 ([2]; treatment-related AE, N = 14): 0 (0) N (%) | Neutropenia, All Grades ([2]; treatment-related AE, N = 14): 11 (79) N (%) | Neutropenia, Grade 1 ([2]; treatment-related AE, N = 14): 0 (0) N (%) | Neutropenia, Grade 2 ([2]; treatment-related AE, N = 14): 3 (21) N (%) | Neutropenia, Grade 3 ([2]; treatment-related AE, N = 14): 6 (43%) N (%) and 6 (43) N (%) | Neutropenia, Grade 4 ([2]; treatment-related AE, N = 14): 2 (14%) N (%) and 2 (14) N (%) | Peripheral sensory neuropathy, All Grades ([2]; treatment-related AE, N = 14): 12 (86) N (%) | Peripheral sensory neuropathy, Grade 1 ([2]; treatment-related AE, N = 14): 6 (43) N (%) | Peripheral sensory neuropathy, Grade 2 ([2]; treatment-related AE, N = 14): 4 (29) N (%) | Peripheral sensory neuropathy, Grade 3 ([2]; treatment-related AE, N = 14): 2 (14%) N (%) and 2 (14) N (%) | Peripheral sensory neuropathy, Grade 4 ([2]; treatment-related AE, N = 14): 0 (0) N (%) | Rash maculo-papular, All Grades ([2]; treatment-related AE, N = 14): 10 (71) N (%) | Rash maculo-papular, Grade 1 ([2]; treatment-related AE, N = 14): 7 (50) N (%) | Rash maculo-papular, Grade 2 ([2]; treatment-related AE, N = 14): 3 (21) N (%) | Rash maculo-papular, Grade 3 ([2]; treatment-related AE, N = 14): 0 (0) N (%) | Rash maculo-papular, Grade 4 ([2]; treatment-related AE, N = 14): 0 (0) N (%) | Thrombocytopenia, All Grades ([2]; treatment-related AE, N = 14): 11 (79) N (%) | Thrombocytopenia, Grade 1 ([2]; treatment-related AE, N = 14): 4 (29) N (%) | Thrombocytopenia, Grade 2 ([2]; treatment-related AE, N = 14): 2 (14) N (%) | Thrombocytopenia, Grade 3 ([2]; treatment-related AE, N = 14): 4 (29%) N (%) and 4 (29) N (%) | Thrombocytopenia, Grade 4 ([2]; treatment-related AE, N = 14): 1 (7%) N (%) and 1 (7) N (%) | Hospitalizations for neutropenic fevers or other treatment-related toxicities [2]: no hospitalizations | G3 or higher thrombocytopenia, patients ([2]; N = 5): 36% | G3 or higher neutropenia, patients ([2]; N = 8): 57% | Patients with Grade 2/Grade 3 neuropathy requiring dose reduction of paclitaxel ([2]; six patients): 43% | CL/F ([3]; 10 mg dose, Cycle 1 Day 1, N = 8, mean ± SD): 3.21 ± 0.84 L/h | CL/F ([3]; 10 mg dose, Cycle 1 Day 15, N = 7, mean ± SD): 2.70 ± 1.07 L/h | CL/F ([3]; 10 mg dose, Cycle 1 Day 17, N = 6, mean ± SD): 1.97 ± 1.12 L/h | CL/F ([3]; 20 mg dose, Cycle 1 Day 1, N = 4, mean ± SD): 3.87 ± 1.09 L/h | CL/F [3, 5]: 3.90 ± 2.20 L/h | Half life [3, 5]: 36.0 ± 31.7 h | CL/F ([3]; 20 mg dose, Cycle 1 Day 17, N = 2, mean ± SD): 2.47 ± 2.55 L/h | Exposure on day 15 compared to day 1 ([3]; cycle 1): 125% | AUC (exposure) on day 17 compared to day 1 ([3]; cycle 1, both dose levels): 220% | Cmax on day 17 compared to day 1 ([3]; cycle 1, both dose levels): 158% | AUC(0-inf) [3, 6]: 3280 ± 749 ng·h/mL | AUC(0-inf) [3, 7]: 4120 ± 2140 ng·h/mL | AUC(0-inf) [3, 8]: 6210 ± 2610 ng·h/mL | Cmax [3, 6]: 203 ± 92.7 ng/mL | Cmax [3, 7]: 177 ± 93.6 ng/mL | Cmax [3, 8]: 259 ± 113 ng/mL | half-life [3, 6]: 14.7 ± 2.2 h | half-life [3, 7]: 20.1 ± 11.2 h | half-life [3, 8]: 20.6 ± 7 h | Vd/F [3, 7]: 76.8 ± 46.8 L | Vd/F [3, 8]: 55.6 ± 25.4 L | AUC(0-inf) [3, 9]: 5520 ± 1680 ng·h/mL | AUC(0-inf) [3, 10]: 6730 ± 4230 ng·h/mL | AUC(0-inf) [3, 11]: 17400 ng·h/mL | Cmax [3, 9]: 324 ± 116 ng/mL | Cmax [3, 10]: 234 ± 25 ng/mL | Cmax [3, 11]: 422 ± 42.6 ng/mL | half-life [3, 9]: 22.8 ± 12.4 h | half-life [3, 11]: 39.3 ± 39.9 h | Vd/F [3, 9]: 115 ± 38.6 L | Vd/F [3, 10]: 139 ± 37.5 L | Vd/F [3, 11]: 66.3 ± 2.4 L | pCR, patients (stage II-III TNBC; 5 of 14 patients, with paclitaxel and carboplatin): 36% | Patients with residual disease in the breast and lymph nodes (stage II-III TNBC; 5 patients, with paclitaxel and carboplatin): 36% | Overall response rate (stage II-III TNBC; 9 of 14 patients who completed chemotherapy (1 never received RO4929097)): 64% | Complete pathologic response (stage II-III TNBC; neoadjuvant, with paclitaxel and carboplatin, N = 14): 5 (36) N (%) | Residual disease (stage II-III TNBC; neoadjuvant, with paclitaxel and carboplatin, N = 14, one patient did not receive RO4929097): 9 (64)^a,b N (%) | QTc prolongation or other clinically significant ECG changes [4]: No QTc prolongation or other clinically significant ECG changes were observed
